Reference: paper PMC5268383, “Inhibition of STAT3 by Anticancer Drug Bendamustine” (PLoS ONE, 2017)

Columns and labels:
[1] = test system: MDA-MB-468 cells (high P-STAT3); assay: WST cell proliferation assay, MDA-MB-468; type: cell-based, human; settings: 0.1-100 μM, 48 h, WST-8
Experimental: (§1) Cells were plated in a 96-well tissue culture plate (1000 cells per well) and incubated for 48 h. After incubation, the cells were treated with vehicle, 0.1–100 μM BENDA, or HP2 for 48 h. Samples were assayed in triplicate. After incubation, WST-8 solution (10 μL; Dojindo Molecular Technologies, Rockville, MD, USA) was added to each well and incubated at 37°C for 4 h, and the absorbance was read at 450 nm.

[2] = molecular target: T1, nuclear STAT3 of MDA-MB-468 cells (Homo sapiens, UniProt P40763); assay: STAT3 DNA binding assay (TransAM ELISA); type: cell-based; settings: MDA-MB-468, 24 h; BENDA 25, 50, 100 μM, HP2 100 μM
T1 construct: endogenous in cells; host or cells: MDA-MB-468
T1 sequence (P40763 2-770 limits assumed): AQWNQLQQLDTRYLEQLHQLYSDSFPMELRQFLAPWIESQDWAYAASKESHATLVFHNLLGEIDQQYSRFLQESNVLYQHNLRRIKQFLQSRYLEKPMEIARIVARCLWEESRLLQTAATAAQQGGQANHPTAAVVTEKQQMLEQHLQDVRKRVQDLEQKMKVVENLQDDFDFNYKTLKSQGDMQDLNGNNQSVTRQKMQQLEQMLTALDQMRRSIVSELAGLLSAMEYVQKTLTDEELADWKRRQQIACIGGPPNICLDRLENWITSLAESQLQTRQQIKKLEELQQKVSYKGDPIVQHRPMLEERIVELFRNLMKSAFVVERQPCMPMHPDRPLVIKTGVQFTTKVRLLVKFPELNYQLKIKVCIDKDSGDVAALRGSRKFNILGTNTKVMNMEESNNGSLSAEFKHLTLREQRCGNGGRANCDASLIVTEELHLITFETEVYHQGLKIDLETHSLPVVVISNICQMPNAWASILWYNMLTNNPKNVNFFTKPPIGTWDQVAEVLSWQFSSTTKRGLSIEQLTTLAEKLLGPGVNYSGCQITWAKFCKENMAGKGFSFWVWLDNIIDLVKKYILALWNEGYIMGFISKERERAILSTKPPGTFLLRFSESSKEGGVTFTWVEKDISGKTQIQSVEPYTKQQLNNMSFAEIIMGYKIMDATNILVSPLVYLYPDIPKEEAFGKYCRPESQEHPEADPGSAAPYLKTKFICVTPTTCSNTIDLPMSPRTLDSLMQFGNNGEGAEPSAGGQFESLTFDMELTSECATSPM
Experimental: The DNA-binding activity of STAT3 was evaluated with a TransAM ELISA kit (Active Motif, Carlsbad, CA, USA). The assay and nuclear extract preparation were performed according to the manufacturer’s instructions. Heat-denatured nuclear extract was used as a negative control. The nuclear extract (20 μg) was added to each well of a 96-well microtiter plate coated with immobilized oligonucleotides containing the STAT3 consensus binding site and incubated at room temperature for 1 h. They were incubated with anti-STAT3 antibody for 1 h at room temperature, followed by HRP-conjugated antibody for 1 h at room temperature. The developing solution was added, the reaction was terminated by the addition of stop solution, and the absorbance was measured at 450 nm with a reference wavelength of 655 nm (SpectraMax M5SK, Molecular Devices, Sunnyvale, CA, USA).

[3] = molecular target: T2, recombinant human STAT3 SH2 domain (Homo sapiens, UniProt P40763); assay: AlphaScreen SH2 binding assay, STAT3; settings: AlphaScreen, 50 nM protein, FITC-GpYLPQTV; read-out: IC50, inhibition of STAT3-SH2 binding to phosphotyrosine peptide
T2 construct: Full-length cDNAs were obtained from a human cDNA library by PCR; Avi-tag (biotinylated in BirA-BL21) (N); made in house; host or cells: Escherichia coli BirA-BL21
T2 sequence (P40763 whole entry, the tested form may be a part): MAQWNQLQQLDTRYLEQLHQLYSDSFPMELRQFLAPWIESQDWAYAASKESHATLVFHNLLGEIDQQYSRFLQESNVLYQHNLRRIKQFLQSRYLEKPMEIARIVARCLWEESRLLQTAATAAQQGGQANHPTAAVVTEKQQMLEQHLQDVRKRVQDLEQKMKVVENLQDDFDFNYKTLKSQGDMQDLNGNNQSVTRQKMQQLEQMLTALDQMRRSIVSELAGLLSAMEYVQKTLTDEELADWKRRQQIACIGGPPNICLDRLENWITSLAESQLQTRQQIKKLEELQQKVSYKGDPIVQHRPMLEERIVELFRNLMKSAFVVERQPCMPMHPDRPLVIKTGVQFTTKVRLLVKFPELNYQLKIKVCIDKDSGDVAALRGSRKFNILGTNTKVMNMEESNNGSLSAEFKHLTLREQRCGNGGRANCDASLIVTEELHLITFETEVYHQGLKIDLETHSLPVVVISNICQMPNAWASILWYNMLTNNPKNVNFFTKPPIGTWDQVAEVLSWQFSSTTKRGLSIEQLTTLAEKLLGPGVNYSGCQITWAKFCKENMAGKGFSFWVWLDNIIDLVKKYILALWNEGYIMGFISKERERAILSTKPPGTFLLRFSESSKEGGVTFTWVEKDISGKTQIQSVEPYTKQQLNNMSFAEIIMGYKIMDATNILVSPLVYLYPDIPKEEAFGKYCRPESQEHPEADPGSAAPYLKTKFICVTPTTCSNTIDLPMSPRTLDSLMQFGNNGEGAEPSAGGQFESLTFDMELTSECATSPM
Experimental: AlphaScreen assays were performed in a final reaction volume of 25 μL of the assay buffer, containing 10 mM HEPES-NaOH (pH 7.4), 50 mM NaCl, 1 mM EDTA (pH 8.0), 0.1% NP-40, and 10 ng/mL BSA in a 96-well microtiter plate at 25°C. The labeled Phospho-Tyr (pTyr) peptide probe was 5-carboxyfluorescein (FITC)-GpYLPQTV for STAT3, FITC-GpYDKPHVL for STAT1, and FITC-PSpYVNVQN for Grb2. A DMSO solution of BENDA was incubated with 50 nM of each SH2-containing protein for 15 min, 50 nM of the corresponding FITC-pTyr peptide was added, and the mixture was incubated for 90 min. Streptavidin-coated donor beads and anti-FITC acceptor beads were added and incubated for 90 min before the signals were measured with an Envision Xcite plate reader (PerkinElmer Life Sciences, Waltham, MA, USA).

[4] = molecular target: T3, STAT3-DNA complex (c-myc promoter) in MDA-MB-468 cells (Homo sapiens, UniProt P40763); assay: ChIP assay, c-myc promoter binding by STAT3; type: cell-based; settings: MDA-MB-468, 8 h; BENDA 25, 50, 100 μM, HP2 50, 100 μM
T3 construct: endogenous in cells; host or cells: MDA-MB-468
T3 sequence (P40763 2-770 limits assumed, one chain of several): as the sequence (P40763 2-770 limits assumed) above
Experimental: A ChIP assay was performed with an ExactaChIP Human/Mouse STAT3 ChIP kit (R&D Systems, Minneapolis, MN, USA). MDA-MB-468 cancer cells were fixed with 1% formaldehyde and treated with the lysis buffer. After sonication, anti-STAT3 antibody or normal mouse IgG was added to the extract, followed by precipitation with Protein G Plus/Protein A Agarose Suspension. The eluted DNA fraction was used for PCR with human c-myc primers.

[5] = test system: MDA-MB-453 cells (low P-STAT3); assay: WST cell proliferation assay, MDA-MB-453; type: cell-based, human; settings: 0.1-100 μM, 48 h, WST-8
Experimental: as §1

[6] = molecular target: T4, rhSTAT3 (Homo sapiens, UniProt P40763); assay: Competition assay with cysteine-blocking reagent Alexa Fluor 488 C5 maleimide; type: binding; settings: 50 or 100 μM compound, 2 h
T4 construct: Full-length cDNAs were obtained from a human cDNA library by PCR; Avi-tag (biotinylated in BirA-BL21) (N); made in house; host or cells: Escherichia coli BirA-BL21
T4 sequence (P40763 whole entry): as the sequence (P40763 whole entry, the tested form may be a part) above
Experimental: rhSTAT3 (0.89 μM) in 100 mM HEPES was incubated with 10 μM Alexa Fluor 488 C5 maleimide (Invitrogen, Paisley, UK), a thiol-reactive probe, in the presence or absence of 50 or 100 μM BENDA or HP2 for 2 h at room temperature. Samples were diluted in SDS-PAGE sample buffer without boiling or 2-mercaptoethanol and run on an SDS-PAGE gel. The protein was transferred to a nitrocellulose membrane and then blotted with Ni-HRP. The Alexa-labeled rhSTAT3 was analyzed by fluorescence (excitation/emission: 493/516 nm) and western blotting with Ni-HRP.

[7] = molecular target: T5, STAT3-CFP / STAT3-YFP in HEK293 cells (Homo sapiens, UniProt P40763); assay: FRET assay of STAT3 dimerization; type: cell-based; settings: HEK293, 10, 20 or 50 μM, pretreatment before 50 ng/mL IL-6 stimulation
T5 construct: expressed in transfected cells; host or cells: HEK293
T5 sequence (P40763 whole entry): as the sequence (P40763 whole entry, the tested form may be a part) above
Experimental: The expression vectors for the fusion proteins STAT3-CFP and STAT3-YFP were prepared by the addition of STAT3 cDNA to pAmCyan1-N1 and pZsyellow1-N1. The vector mixture (1:1) was transfected into HEK293 cells with Lipofectamine 2000. The cells were cultured with 2% FBS DMEM for 48 h in a 96-well microtiter plate, treated with 0, 10, 20, or 50 μM BENDA or HP2 in a final DMSO concentration of 0.2% for 24 h, and then stimulated with 50 ng/mL IL-6 for a further 1 h. Fluorescence signals were measured (SpectraMax M5SK). The signals measured by FRET (excitation/emission: 436/528 nm) were corrected for crosstalk signals from cyan (excitation/emission: 436/488 nm) and yellow (excitation/emission: 517/528 nm).

[8] = molecular target: T6, cellular STAT3 in MDA-MB-468 cells (Homo sapiens, UniProt P40763); assay: Pull-down assay using Bio-BENDA, anti-STAT3 immunoprecipitation; type: cell-based; settings: 50 μM Bio-BENDA plus excess free drug, 4 h
T6 construct: endogenous in cells; host or cells: MDA-MB-468
T6 sequence (P40763 2-770 limits assumed): as the sequence (P40763 2-770 limits assumed) above
Experimental: MDA-MB-468 cells were treated with biotinylated BENDA (Bio-BENDA) in the presence or absence of an excess amount of free drugs for 4 h and then lysed in PhosphoSafe™ Extraction Reagent (Merck, Darmstadt, Germany). Lysate (200 μL) was precleared with a mixture of Protein G Plus/Protein A Agarose Suspension (EMD Millipore, Billerica, MA, USA) for 1 h at 4°C and protein A and G agarose were removed by centrifugation at 13,000 rpm for 10 min. The lysate (200 μL) was immunoprecipitated with STAT3 antibody (1 μL) overnight at 4°C on a shaker and the immunocomplex was captured by the addition of a Protein G Plus/Protein A Agarose Suspension (30 μL) slurry for 1 h at 4°C. Samples were washed five times with lysis buffer and then boiled four times in SDS-PAGE sample buffer and run on an SDS-PAGE gel. The protein was transferred to a nitrocellulose membrane. The membranes were blocked in 5% skim milk in TBS/0.1% Tween 20. They were then incubated with streptavidin-HRP diluted at 1:2000 in 1.5% skim milk in TBS (pH7.4)/0.1% Tween 20 overnight at 4°C. Immunoblots were developed by using a chemiluminescent substrate.

Inhibition of STAT3 binding to oligonucleotides containing STAT3 consensus binding site [2]: did not | IC50 [3]: > 100 µM | Amplified c-myc promoter band in STAT3 ChIP [4]: clearly detected | Effect on fluorescence intensity of Alexa-labeled rhSTAT3 [6]: hardly observed | Effect on FRET signals (STAT3 dimerization) [7]: unchanged | Competition of Bio-BENDA STAT3 band intensity by excess free drug [8]: no reduction
SMILES: Cn1c(CCCC(=O)O)nc2cc(N(CCO)CCO)ccc21 [HP2, dihydroxy bendamustine]
Inhibition of proliferation of MDA-MB-468 cells [1]: did not inhibit proliferation | Inhibition of proliferation of MDA-MB-453 cells [5]: did not inhibit proliferation
